Publication PMC9229919, “4-Aminoquinoline-Based Adamantanes as Potential Anticholinesterase Agents in Symptomatic Treatment of Alzheimer’s Disease” (Pharmaceutics, 2022)
Read-outs that look alike come from different tables or passages of the source.

Assays:
purified human BChE = molecular target: T1, purified human BChE (Homo sapiens, UniProt P06276); assay: biochemical; type: biochemical
T1 construct: possibly also a gift of Dr Florian Nachon (the sentence is ambiguous)
In short: (§1)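 Modified Ellman assay with acetylthiocholine and DTNB in 0.1 M sodium phosphate pH 7.4 (enzymes diluted with 0.1% BSA), ≤0.2% DMSO, 25 °C. At least three inhibitor concentrations per substrate level; Ki,app from Hunter–Downs equation, Ki from y-intercept and inhibition type from Ki,app vs [S].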

recombinant human AChE = molecular target: T2, recombinant human AChE (Homo sapiens, UniProt P22303); assay: biochemical; type: biochemical; conditions: for IS: IS = Ki(BChE)/Ki(AChE), IS > 1 selective to AChE
T2 construct: gift of Dr Florian Nachon (Armed Forces Biomedical Research Institute, Brétigny-sur-Orge, France)
In short: as §1

[1] = Ferric reducing antioxidant power (FRAP) assay; conditions: mean ± standard error of three experiments;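 further: expressed as µM Fe2+ equivalents from an FeSO4·7H2O standard curve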
In short: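 Compounds at 10 and 100 µM were mixed with FRAP reagent (300 mM acetate buffer pH 3.6, TPTZ in HCl, FeCl3, 10:1:1) and incubated 60 min at 37 °C. Fe^2+-TPTZ formation read at 593 nm against a blank. Values derived from an Fe2SO4·7H2O standard curve, three independent experiments.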

[2] = Reverse-phase thin-layer chromatographic lipophilicity (RF, RM0); type: physicochemical; conditions: for RM0: intercept of RM = RM0 + bC; for b: slope of RM = RM0 + bC; for RF, Methanol/Water/Hydrochloric acid (conc.), mobile phase I: I = 90%MeOH/5%H2O/5%HCl; for RF, Dioxane/Water/Hydrochloric acid (conc.), mobile phase II: II = 80%Dioxane/15%H2O/5%HCl; for RF, Methanol/Water/Hydrochloric acid (conc.), mobile phase II: II = 85%MeOH/10%H2O/5%HCl; for RF, Acetone/Water/Hydrochloric acid (conc.), mobile phase III: III = 70%AC/25%H2O/5%HCl; for RF, Dioxane/Water/Hydrochloric acid (conc.), mobile phase III: III = 70%Dioxane/25%H2O/5%HCl; for RF, Methanol/Water/Hydrochloric acid (conc.), mobile phase III: III = 80%MeOH/15%H2O/5%HCl; for RF, Dioxane/Water/Hydrochloric acid (conc.), mobile phase IV: IV = 60%Dioxane/35%H2O/5%HCl; for RF, Acetone/Water/Hydrochloric acid (conc.), mobile phase IV: IV = 65%AC/30%H2O/5%HCl; for RF, Methanol/Water/Hydrochloric acid (conc.), mobile phase IV: IV = 75%MeOH/20%H2O/5%HCl; for RF, Acetone/Water/Hydrochloric acid (conc.), mobile phase IX: IX = 40%AC/55%H2O/5%HCl; for RF, Methanol/Water/Hydrochloric acid (conc.), mobile phase IX: IX = 50%MeOH/45%H2O/5%HCl; for RF, Dioxane/Water/Hydrochloric acid (conc.), mobile phase V: V = 50%Dioxane/45%H2O/5%HCl; for RF, Acetone/Water/Hydrochloric acid (conc.), mobile phase V: V = 60%AC/35%H2O/5%HCl; for RF, Methanol/Water/Hydrochloric acid (conc.), mobile phase V: V = 70%MeOH/25%H2O/5%HCl; for RF, Dioxane/Water/Hydrochloric acid (conc.), mobile phase VI: VI = 40%Dioxane/55%H2O/5%HCl; for RF, Acetone/Water/Hydrochloric acid (conc.), mobile phase VI: VI = 55%AC/40%H2O/5%HCl; for RF, Methanol/Water/Hydrochloric acid (conc.), mobile phase VI: VI = 65%MeOH/30%H2O/5%HCl; for RF, Acetone/Water/Hydrochloric acid (conc.), mobile phase VII: VII = 50%AC/45%H2O/5%HCl; for RF, Methanol/Water/Hydrochloric acid (conc.), mobile phase VII: VII = 60%MeOH/35%H2O/5%HCl; for RF, Acetone/Water/Hydrochloric acid (conc.), mobile phase VIII: VIII = 45%AC/50%H2O/5%HCl; for RF, Methanol/Water/Hydrochloric acid (conc.), mobile phase VIII: VIII = 55%MeOH/40%H2O/5%HCl
In short: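 Reverse-phase TLC using mobile phases of methanol, acetone or dioxane with water and hydrochloric acid. Methanol varied in 10% steps; development distance 4.5 cm, ambient temperature (22±2 °C). RF measured and RM0 derived from retention.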

[3] = logarithm of Ki in µM, BChE, dependent variable of the QSAR model, read-out: Y Measured 2 log(ki)Bche, log (Ki/µM BChE) (converted)
[4] = ± standard error, 25 °C, ATCh substrate, read-out: Ki BChE
[5] = log (Ki/µM AChE), read-out: Y Measured 1 log(ki)Ache (converted)
[6] = ± standard error, 25 °C, ATCh substrate, read-out: Ki AChE
[7] = Acetone/Water/Hydrochloric acid (conc.)
[8] = Dioxane/Water/Hydrochloric acid (conc.)
[9] = Methanol/Water/Hydrochloric acid (conc.)

T1 sequence (P06276 29-602): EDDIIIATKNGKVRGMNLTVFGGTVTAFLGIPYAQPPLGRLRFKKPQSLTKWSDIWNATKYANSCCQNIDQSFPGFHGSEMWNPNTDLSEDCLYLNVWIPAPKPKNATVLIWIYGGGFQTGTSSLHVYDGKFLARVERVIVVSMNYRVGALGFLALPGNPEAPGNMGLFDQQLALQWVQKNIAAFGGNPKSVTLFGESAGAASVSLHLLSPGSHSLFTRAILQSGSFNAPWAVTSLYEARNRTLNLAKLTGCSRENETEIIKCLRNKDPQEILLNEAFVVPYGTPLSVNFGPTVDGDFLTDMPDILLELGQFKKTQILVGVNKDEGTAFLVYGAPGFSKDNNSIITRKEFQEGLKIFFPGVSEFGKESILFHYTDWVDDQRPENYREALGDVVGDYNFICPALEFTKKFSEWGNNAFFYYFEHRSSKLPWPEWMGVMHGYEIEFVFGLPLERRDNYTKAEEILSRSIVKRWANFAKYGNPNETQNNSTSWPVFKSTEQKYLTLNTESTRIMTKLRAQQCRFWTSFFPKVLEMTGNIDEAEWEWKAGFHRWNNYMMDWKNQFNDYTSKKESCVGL
T2 sequence (P22303 32-614): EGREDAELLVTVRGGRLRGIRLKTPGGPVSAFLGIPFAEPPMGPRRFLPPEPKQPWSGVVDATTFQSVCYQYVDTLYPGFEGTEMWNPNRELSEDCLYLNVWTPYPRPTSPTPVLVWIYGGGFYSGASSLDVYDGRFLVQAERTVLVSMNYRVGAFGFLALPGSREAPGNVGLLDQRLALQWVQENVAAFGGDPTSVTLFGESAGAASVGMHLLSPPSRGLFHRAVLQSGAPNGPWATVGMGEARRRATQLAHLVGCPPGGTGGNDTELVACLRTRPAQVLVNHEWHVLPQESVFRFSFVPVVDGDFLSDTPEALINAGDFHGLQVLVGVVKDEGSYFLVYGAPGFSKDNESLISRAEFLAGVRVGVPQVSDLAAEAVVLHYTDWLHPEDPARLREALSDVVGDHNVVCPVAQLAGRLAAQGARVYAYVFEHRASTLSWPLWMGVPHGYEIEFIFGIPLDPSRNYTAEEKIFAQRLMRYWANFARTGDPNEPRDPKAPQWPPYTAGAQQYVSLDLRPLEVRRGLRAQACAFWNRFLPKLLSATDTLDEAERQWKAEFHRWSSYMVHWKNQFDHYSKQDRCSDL

| SMILES | IS (recombinant human AChE) | Ki (recombinant human AChE; [6]) [µM] | FRAP ([1]; 10 µM compound) [µM] | FRAP ([1]; 100 µM compound) [µM] | RM0 [2, 7] | b [2, 7] | RM0 [2, 8] | b [2, 8] | RM0 [2, 9] | b [2, 9] | RF, Methanol/Water/Hydrochloric acid (conc.), mobile phase I ([2]; RP-18 silica) | RF, Dioxane/Water/Hydrochloric acid (conc.), mobile phase II ([2]; RP-18 silica) | RF, Methanol/Water/Hydrochloric acid (conc.), mobile phase II ([2]; RP-18 silica) | RF, Acetone/Water/Hydrochloric acid (conc.), mobile phase III ([2]; RP-18 silica) | RF, Dioxane/Water/Hydrochloric acid (conc.), mobile phase III ([2]; RP-18 silica) | RF, Methanol/Water/Hydrochloric acid (conc.), mobile phase III ([2]; RP-18 silica) | RF, Dioxane/Water/Hydrochloric acid (conc.), mobile phase IV ([2]; RP-18 silica) | RF, Acetone/Water/Hydrochloric acid (conc.), mobile phase IV ([2]; RP-18 silica) | RF, Methanol/Water/Hydrochloric acid (conc.), mobile phase IV ([2]; RP-18 silica) | RF, Acetone/Water/Hydrochloric acid (conc.), mobile phase IX ([2]; RP-18 silica) | also measured |
| --- | --- | --- | --- | --- | --- | --- | --- | --- | --- | --- | --- | --- | --- | --- | --- | --- | --- | --- | --- | --- | --- |
| Clc1ccc2c(N3CCN(CC45CC6CC(CC(C6)C4)C5)CC3)ccnc2c1 [Compound 20] | 2.7 | 9.4 ± 0.4 | 2.9 ± 1.1 | 6.3 ± 1.6 | 1.432 | 2.592 | 0.3825 | 1.224 | 1.5449 | 2.158 | 0.67 | 0.75 | 0.7 | 0.69 | 0.76 | 0.58 | 0.78 | 0.65 | 0.56 | 0.28 | decrease in BChE inhibition vs compound 5 (purified human BChE): up to 275 times; Ki (purified human BChE; [3]): 25.1 µM; Ki (purified human BChE; [4]): 25 ± 1 µM; Ki (recombinant human AChE; [5]): 9.4 µM; RF, Methanol/Water/Hydrochloric acid (conc.), mobile phase IX ([2]; RP-18 silica): 0.22; RF, Dioxane/Water/Hydrochloric acid (conc.), mobile phase V ([2]; RP-18 silica): 0.63; RF, Acetone/Water/Hydrochloric acid (conc.), mobile phase V ([2]; RP-18 silica): 0.58; RF, Methanol/Water/Hydrochloric acid (conc.), mobile phase V ([2]; RP-18 silica): 0.48; RF, Dioxane/Water/Hydrochloric acid (conc.), mobile phase VI ([2]; RP-18 silica): 0.5; RF, Acetone/Water/Hydrochloric acid (conc.), mobile phase VI ([2]; RP-18 silica): 0.51; RF, Methanol/Water/Hydrochloric acid (conc.), mobile phase VI ([2]; RP-18 silica): 0.45; RF, Acetone/Water/Hydrochloric acid (conc.), mobile phase VII ([2]; RP-18 silica): 0.42; RF, Methanol/Water/Hydrochloric acid (conc.), mobile phase VII ([2]; RP-18 silica): 0.38; RF, Acetone/Water/Hydrochloric acid (conc.), mobile phase VIII ([2]; RP-18 silica): 0.35; RF, Methanol/Water/Hydrochloric acid (conc.), mobile phase VIII ([2]; RP-18 silica): 0.31 |
| Clc1ccc2c(NCCCCCCNCC34CC5CC(CC(C5)C3)C4)ccnc2c1 [Compound 4] | 1.1 | 0.67 ± 0.02 | 1.9 ± 0.5 | 58 ± 10 | 2.036 | 3.254 | 0.9103 | 1.922 | 2.899 | 3.742 | 0.72 | 0.78 | 0.66 | 0.6 | 0.73 | 0.47 | 0.72 | 0.55 | 0.49 | 0.11 | Ki (purified human BChE; [3]): 0.76 µM; Ki (purified human BChE; [4]): 0.76 ± 0.06 µM; Ki (recombinant human AChE; [5]): 0.67 µM; RF, Methanol/Water/Hydrochloric acid (conc.), mobile phase IX ([2]; RP-18 silica): 0.06; RF, Dioxane/Water/Hydrochloric acid (conc.), mobile phase V ([2]; RP-18 silica): 0.52; RF, Acetone/Water/Hydrochloric acid (conc.), mobile phase V ([2]; RP-18 silica): 0.45; RF, Methanol/Water/Hydrochloric acid (conc.), mobile phase V ([2]; RP-18 silica): 0.4; RF, Dioxane/Water/Hydrochloric acid (conc.), mobile phase VI ([2]; RP-18 silica): 0.38; RF, Acetone/Water/Hydrochloric acid (conc.), mobile phase VI ([2]; RP-18 silica): 0.37; RF, Methanol/Water/Hydrochloric acid (conc.), mobile phase VI ([2]; RP-18 silica): 0.31; RF, Acetone/Water/Hydrochloric acid (conc.), mobile phase VII ([2]; RP-18 silica): 0.33; RF, Methanol/Water/Hydrochloric acid (conc.), mobile phase VII ([2]; RP-18 silica): 0.2; RF, Acetone/Water/Hydrochloric acid (conc.), mobile phase VIII ([2]; RP-18 silica): 0.26; RF, Methanol/Water/Hydrochloric acid (conc.), mobile phase VIII ([2]; RP-18 silica): 0.13 |
| Clc1ccc2c(NCCCCN(CCC34CC5CC(CC(C5)C3)C4)CCC34CC5CC(CC(C5)C3)C4)ccnc2c1 [Compound 10] | 0.4 | 2.4 ± 0.2 | 13 ± 4 | 90 ± 6 | 3.647 | 4.824 | 1.984 | 2.852 | 5.456 | 5.91 | 0.44 | 0.65 | 0.31 | 0.33 | 0.59 | 0.1 | 0.47 | 0.28 | 0.1 | 0 | Ki (purified human BChE; [4]): 1 ± 0.1 µM; RF, Acetone/Water/Hydrochloric acid (conc.), mobile phase I ([2]; RP-18 silica, I = 80%AC/15%H2O/5%HCl): 0.59; RF, Dioxane/Water/Hydrochloric acid (conc.), mobile phase I ([2]; RP-18 silica, I = 90%Dioxane/5%H2O/5%HCl): 0.75; RF, Acetone/Water/Hydrochloric acid (conc.), mobile phase II ([2]; RP-18 silica, II = 75%AC/20%H2O/5%HCl): 0.52; RF, Methanol/Water/Hydrochloric acid (conc.), mobile phase IX ([2]; RP-18 silica): 0; RF, Dioxane/Water/Hydrochloric acid (conc.), mobile phase V ([2]; RP-18 silica): 0.14; RF, Acetone/Water/Hydrochloric acid (conc.), mobile phase V ([2]; RP-18 silica): 0.13; RF, Methanol/Water/Hydrochloric acid (conc.), mobile phase V ([2]; RP-18 silica): 0.05; RF, Dioxane/Water/Hydrochloric acid (conc.), mobile phase VI ([2]; RP-18 silica): 0; RF, Acetone/Water/Hydrochloric acid (conc.), mobile phase VI ([2]; RP-18 silica): 0.09; RF, Methanol/Water/Hydrochloric acid (conc.), mobile phase VI ([2]; RP-18 silica): 0.01; RF, Acetone/Water/Hydrochloric acid (conc.), mobile phase VII ([2]; RP-18 silica): 0; RF, Methanol/Water/Hydrochloric acid (conc.), mobile phase VII ([2]; RP-18 silica): 0; RF, Acetone/Water/Hydrochloric acid (conc.), mobile phase VIII ([2]; RP-18 silica): 0; RF, Methanol/Water/Hydrochloric acid (conc.), mobile phase VIII ([2]; RP-18 silica): 0 |
| CC(CCNCC12CC3CC(CC(C3)C1)C2)Nc1ccnc2cc(Cl)ccc12 (centres unmarked) [Compound 12] | 2.1 | 0.56 ± 0.02 | 24.2 ± 0.0 | 37 ± 7 | 1.835 | 3.007 | 0.75 | 1.647 | 2.4121 | 3.174 | 0.71 | 0.75 | 0.66 | 0.62 | 0.72 | 0.53 | 0.72 | 0.58 | 0.5 | 0.15 | Ki (purified human BChE; Ki BChE, ± standard error, 25 °C, ATCh substrate): 1.2 ± 0.1 µM; Ki (recombinant human AChE; [5]): 0.56 µM; RF, Methanol/Water/Hydrochloric acid (conc.), mobile phase IX ([2]; RP-18 silica): 0.1; RF, Dioxane/Water/Hydrochloric acid (conc.), mobile phase V ([2]; RP-18 silica): 0.54; RF, Acetone/Water/Hydrochloric acid (conc.), mobile phase V ([2]; RP-18 silica): 0.48; RF, Methanol/Water/Hydrochloric acid (conc.), mobile phase V ([2]; RP-18 silica): 0.44; RF, Dioxane/Water/Hydrochloric acid (conc.), mobile phase VI ([2]; RP-18 silica): 0.4; RF, Acetone/Water/Hydrochloric acid (conc.), mobile phase VI ([2]; RP-18 silica): 0.41; RF, Methanol/Water/Hydrochloric acid (conc.), mobile phase VI ([2]; RP-18 silica): 0.36; RF, Acetone/Water/Hydrochloric acid (conc.), mobile phase VII ([2]; RP-18 silica): 0.34; RF, Methanol/Water/Hydrochloric acid (conc.), mobile phase VII ([2]; RP-18 silica): 0.25; RF, Acetone/Water/Hydrochloric acid (conc.), mobile phase VIII ([2]; RP-18 silica): 0.29; RF, Methanol/Water/Hydrochloric acid (conc.), mobile phase VIII ([2]; RP-18 silica): 0.18 |
